Measured values published in patent US7012080B2, “Imidazopyridine compounds as 5-HT4 receptor agonists” (Pfizer Inc., priority 2002, dated 2006).

Assays:
[1] = molecular target: T1, 5-HT4 receptor (UniProt Q13639); test: 5-HT4 receptor binding ([3H]-GR113808 displacement)
T1 construct: Human 5-HT4(d) transfected HEK293 cells were prepared and grown in-house
Description: The 5-HT4 receptor binding affinities of the compounds of this invention are determined by the following procedures. […]
Human 5-HT4(d) transfected HEK293 cells were prepared and grown in-house. The collected cells were suspended in 50 mM HEPES (pH 7.4 at 4° C.) supplemented with protease inhibitor cocktail (Boehringer, 1:1000 dilution) and homogenized using a hand held Polytron PT 1200 disruptor set at full power for 30 sec on ice. The homogenates were centrifuged at 40,000×g at 4° C. for 30 min. The pellets were then resuspended in 50 mM HEPES (pH 7.4 at 4° C.) and centrifuged once more in the same manner. The final pellets were resuspended in an appropriate volume of 50 mM HEPES (pH 7.4 at 25° C.), homogenized, aliquoted and stored at −80° C. until use. An aliquot of membrane fractions was used for protein concentration determination using BCA protein assay kit (PIERCE) and ARVOsx plate reader (Wallac).
For the binding experiments, 25 μl of test compounds were incubated with 25 μl of [^3H]-GR113808 (Amersham, final 0.2 nM) and 150 μl of membrane homogenate and WGA-SPA beads (Amersham) suspension solutions (10 μg protein and 1 mg SPA beads/well) for 60 minutes at room temperature. Nonspecific binding was determined by 1 μM GR113808 (Tocris) at the final concentration. Incubation was terminated by centrifugation at 1000 rpm. Receptor-bound radioactivity was quantified by counting with MicroBeta plate counter (Wallac).

[2] = molecular target: T2, HERG potassium channel (Homo sapiens, UniProt Q12809); test: Human dofetilide binding ([3H]-dofetilide, HERG transfected HEK293S cell membranes); conditions: for TI (Defetilide/5HT4): TI = Dofetilide Binding Ki [μM] / 5HT4 Binding Ki [nM] × 1000; for Ki: [3H]-dofetilide 5 nM, human HERG transfected HEK293S membranes
T2 construct: expressed in transfected cells; host or cells: HEK293S
T2 sequence (Q12809 whole entry): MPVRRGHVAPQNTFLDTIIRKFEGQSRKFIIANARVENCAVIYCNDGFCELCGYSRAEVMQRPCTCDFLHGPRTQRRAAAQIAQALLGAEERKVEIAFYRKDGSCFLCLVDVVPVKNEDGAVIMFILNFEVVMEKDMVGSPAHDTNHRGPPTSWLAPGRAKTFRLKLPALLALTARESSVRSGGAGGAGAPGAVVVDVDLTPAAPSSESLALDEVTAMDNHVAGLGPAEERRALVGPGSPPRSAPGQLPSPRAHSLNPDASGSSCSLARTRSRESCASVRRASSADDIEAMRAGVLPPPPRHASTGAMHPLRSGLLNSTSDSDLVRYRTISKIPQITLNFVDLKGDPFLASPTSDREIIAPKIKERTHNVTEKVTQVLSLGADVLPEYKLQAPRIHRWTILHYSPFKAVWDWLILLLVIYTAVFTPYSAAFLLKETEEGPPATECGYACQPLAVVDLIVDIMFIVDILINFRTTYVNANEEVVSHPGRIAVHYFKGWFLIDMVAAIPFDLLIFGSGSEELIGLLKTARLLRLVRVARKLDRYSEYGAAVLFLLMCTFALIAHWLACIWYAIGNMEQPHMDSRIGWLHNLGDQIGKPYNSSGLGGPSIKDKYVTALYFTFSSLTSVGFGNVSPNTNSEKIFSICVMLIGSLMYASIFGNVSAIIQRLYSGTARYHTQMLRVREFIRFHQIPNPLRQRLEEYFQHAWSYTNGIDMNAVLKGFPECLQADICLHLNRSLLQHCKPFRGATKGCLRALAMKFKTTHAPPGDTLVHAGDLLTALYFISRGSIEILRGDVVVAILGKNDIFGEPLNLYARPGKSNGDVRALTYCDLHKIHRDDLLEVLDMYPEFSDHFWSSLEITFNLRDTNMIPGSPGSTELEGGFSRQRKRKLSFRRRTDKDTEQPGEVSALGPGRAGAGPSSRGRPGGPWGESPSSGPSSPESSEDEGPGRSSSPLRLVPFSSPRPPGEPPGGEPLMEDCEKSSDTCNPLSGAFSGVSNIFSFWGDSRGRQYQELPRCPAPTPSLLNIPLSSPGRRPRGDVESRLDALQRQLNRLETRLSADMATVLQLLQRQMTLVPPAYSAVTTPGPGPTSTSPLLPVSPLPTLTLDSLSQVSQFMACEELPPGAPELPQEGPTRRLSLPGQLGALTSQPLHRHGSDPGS
Description: Inhibitory activity at HERG channel was estimated from affinity for HERG type potassium channel was investigated by checking [^3H]dofetilide binding, which can predict inhibitory activity at HERG channel (Eur. J. Pharmacol., 430, pp 147–148, 2001). Selected compounds with low [^3H]dofetilide binding activity were evaluated in IHERG assay to check activity at HERG channel. Introducing a branched chain group to nitrogen atom in piperidine ring contributed to potent 5-HT4 receptor agonist activities with reduced inhibitory activity at HERG channel. The compounds of the present invention may show less toxicity, good absorption, distribution and less drug-drug interaction, and have metabolic stability.
Human HERG transfected HEK293S cells were prepared and grown in-house. The collected cells were suspended in 50 mM Tris-HCl (pH 7.4 at 4° C.) and homogenized using a hand held Polytron PT 1200 disruptor set at full power for 20 sec on ice. The homogenates were centrifuged at 48,000×g at 4° C. for 20 min. The pellets were then resuspended, homogenized, and centrifuged once more in the same manner. The final pellets were resuspended in an appropriate volume of 50 mM Tris-HCl, 10 mM KCl, 1 mM MgCl2 (pH 7.4 at 4° C.), homogenized, aliquoted and stored at −80° C. until use. An aliquot of membrane fractions was used for protein concentration determination using BCA protein assay kit (PIERCE) and ARVOsx plate reader (Wallac).
Binding assays were conducted in a total volume of 200 μl in 96-well plates. Twenty μl of test compounds were incubated with 20 μl of [^3H]-dofetilide (Amersham, final 5 nM) and 160 μl of membrane homogenate (25 μg protein) for 60 minutes at room temperature. Nonspecific binding was determined by 10 μM dofetilide at the final concentration. Incubation was terminated by rapid vacuum filtration over 0.5% presoaked GF/B Betaplate filter using Skatron cell harvester with 50 mM Tris-HCl, 10 mM KCl, 1 mM MgCl2, pH 7.4 at 4° C. The filters were dried, put into sample bags and filled with Betaplate Scint. Radioactivity bound to filter was counted with Wallac Betaplate counter.

| Compound | Ki [1] [nM] | melting point [°C] | TI (Defetilide/5HT4) [2] | Ki [2] [nM] |
| --- | --- | --- | --- | --- |
| COC(C)(C)CCN1CCC(CNC(=O)c2cc(Cl)c(N)n3cc(C)nc23)CC1 [Example 8, 5-Amino-6-chloro-N-{[1-(3-methoxy-3-methylbutyl)piperidin-4-yl]methyl}2-methylimidazo[1,2-a]pyridine-8-carboxamide] |  | 199 |  |  |
| COCCCN1CCC(CNC(=O)c2cc(Cl)c(N)n3cc(C)nc23)CC1 [Compound B, reference compound] | 4.6 |  | 1,300 | 6000 |
| Cc1cn2c(N)ccc(C(=O)NCC3CCN(CC(C)C)CC3)c2n1 [Example 2, 5-Amino-N-[(1-isobutylpiperidi-4-yl)methyl]-2-methylimidazo[1,2-a]pyridine-8-carboxamide] | 3.1 |  | 7,800 | 24100 |
| COCC(C)(C)CN1CCC(CNC(=O)c2cc(Cl)c(N)n3cc(C)nc23)CC1 [Example 9, 5-amino-6-chloro-N-{[1-(3-methoxy-2,2-dimethylpropyl)piperidin-4-yl]methyl}2-methylimidazo[1,2-a]pyridine-8-carboxamide] |  | 199 |  |  |

Second part, led by results:

| Ki [1] [nM] | melting point [°C] | Compound | TI (Defetilide/5HT4) [2] | Ki [2] [nM] |
| --- | --- | --- | --- | --- |
| 1.2 |  | CCCCN1CCC(CNC(=O)c2cc(Cl)c(N)n3cc(C)nc23)CC1 [Compound A, reference compound] | 1,900 | 2300 |
| 2 | 211 | COC(C)(C)CN1CCC(CNC(=O)c2cc(Cl)c(N)n3cc(C)nc23)CC1 [Example 5, 5-Amino-6-chloro-2-methyl-N-{[1-(2-methoxy-2-methylpropyl)piperidin-4-yl]methyl}imidazo[1,2-a]pyridine-8-carboxamide] |  | > 24000 |
| 1.2 | 211 | CCc1cn2c(N)c(Cl)cc(C(=O)NCC3CCN(CC(C)(C)OC)CC3)c2n1 [Example 4, 5-Amino-6-chloro-2-ethyl-N-{[1-(2-methoxy-2-methylpropyl)piperidin-4-yl]methyl}imidazo[1,2-a]pyridine-8-carboxamide] |  | 22300 |
| 0.82 | 216 to 219 | Cc1cn2c(N)c(Cl)cc(C(=O)NCC3CCN(CC(C)C)CC3)c2n1 [Example 1, 5-Amino-6-chloro-N-[(1-isobutylpiperidin-4-yl)methyl]-2-methylimidazo[1,2-a]pyridine-8-carboxamide] | 7,000 | 5750 |
| 0.77 | 234 | CCc1cn2c(N)c(Cl)cc(C(=O)NCC3CCN(CCC(C)(C)C)CC3)c2n1 [Example 3, 5-Amino-6-chloro-N-{[1-(3,3-dimethylbutyl)piperidin-4-yl]methyl}-2-ethylimidazo[1,2-a]pyridine-8-carboxamide] | 5,000 | 3870 |
